The values below come from patent publication US9624247B2, “Pyrazolo-pyrrolidin-4-one derivatives as bet inhibitors and their use in the treatment of disease” (NOVARTIS AG, priority 2013, dated 2017).

As usually defined, the GI50 is the concentration giving 50% growth inhibition. A word on the IC50: it is the concentration needed to halve the response being measured.

For assay [1], the system named is THP-1 cells. In words: Cell growth inhibition assay (CellTiter-Glo), THP-1. Format: cell-based, human. The settings on record: THP-1, 4 days; for GI50: Homo sapiens, 96 h, half-maximal growth inhibition; for THP-1 TGI: total growth inhibition. The essentials:
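Leukemia cells were exposed for 4 days at 37 °C to 3-fold dilution series from 10 μM (0.1% DMSO), then viable cells were quantified by CellTiter-Glo ATP luminescence. Signal was corrected for background and a day-0 plate, with vehicle set at 100% and medium-only at −100%. IC50 and TGI were obtained by four-parameter fit.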
(ATP-based viability assays read luminescence as a measure of living cells.)

Assay [2] has as its target CREBBP bromodomain (His-CREBBP(1081-1197)) (Homo sapiens (Human), UniProt Q92793). The experiment in a line: AlphaScreen in-vitro binding assay for CREBBP. Conditions: AlphaScreen, acetyl-histone H4 peptide; read-out: CREBBP IC50.

CREBBP bromodomain (His-CREBBP(1081-1197)), sequence (Q92793 1081-1197): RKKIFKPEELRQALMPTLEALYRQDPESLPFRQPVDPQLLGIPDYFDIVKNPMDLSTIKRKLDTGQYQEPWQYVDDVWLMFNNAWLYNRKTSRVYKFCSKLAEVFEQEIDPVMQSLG

As for `Cc1cc(N2C(=O)c3c(C4CC4)nn(C)c3C2c2ccc(Cl)cc2)cn2c(C(F)F)nnc12` (racemic) [Example 3, 6-(4-chlorophenyl)-3-cyclopropyl-5-(3-(difluoromethyl)-8-methyl-[1,2,4]triazolo[4,3-a]pyridin-6-yl)-1-methyl-5,6-dihydropyrrolo[3,4-c]pyrazol-4(1H)-one], in assay [1], the GI50 came to 12.4 nM and the “THP-1 TGI” value was found to be 29.45 nM. For the same compound, the IC50 in assay [2] is over 37000 nM.
`COCCn1nc(C2CC2)c2c1C(c1ccc(Cl)cc1)N(c1cc(C)c3nnc(C)n3c1)C2=O` (racemic) [Example 4, 6-(4-chlorophenyl)-3-cyclopropyl-5-(3,8-dimethyl-[1,2,4]triazolo[4,3-a]pyridin-6-yl)-1-(2-methoxyethyl)-5,6-dihydropyrrolo[3,4-c]pyrazol-4(1H)-one]: in assay [1], the GI50 came to 11.9 nM and the “THP-1 TGI” value was 27.95 nM. Besides, the IC50 in assay [2] stood at 7300 nM.
On to `COc1cc(N2C(=O)c3c(C4CC4)nn(C)c3C2c2ccc(Cl)cc2)cn2c(C)nnc12` (racemic) [Example 5, 6-(4-chlorophenyl)-3-cyclopropyl-5-(8-methoxy-3-methyl-[1,2,4]triazolo[4,3-a]pyridin-6-yl)-1-methyl-5,6-dihydropyrrolo[3,4-c]pyrazol-4(1H)-one], for which, in assay [1], growth was halved (GI50) at 81.4 nM and the “THP-1 TGI” value worked out at 147.5 nM. In assay [2], the IC50 is over 37000 nM.
In the same order, the values of `Cc1cc(N2C(=O)c3c(C4CC4)nn(C)c3C2c2ccc(Cl)cc2)cn2c(CF)nnc12` (racemic) [Example 16, 6-(4-chlorophenyl)-3-cyclopropyl-5-(3-(fluoromethyl)-8-methyl-[1,2,4]triazolo[4,3-a]-pyridin-6-yl)-1-methyl-5,6-dihydropyrrolo[3,4-c]pyrazol-4(1H)-one] are 18.7 nM, 51.6 nM and over 37000 nM.
On the same counts, the results for `Cc1cc(N2C(=O)c3c(C4CC4)nn(C)c3C2c2ccc(Cl)cc2)cn2c(C)nnc12` (centres unmarked) [Example 1, 6-(4-chlorophenyl)-3-cyclopropyl-5-(3,8-dimethyl-[1,2,4]triazolo[4,3-a]pyridin-6-yl)-1-methyl-5,6-dihydropyrrolo[3,4-c]pyrazol-4(1H)-one] are 9.6 nM, 20.4 nM and 11400 nM.
In the same order, the values of `Cc1cc(N2C(=O)c3c(C4CC4)nn(C)c3[C@H]2c2ccc(Cl)cc2)cn2c(C)nnc12` [Example 2, (R)-6-(4-chlorophenyl)-3-cyclopropyl-5-(3,8-dimethyl-[1,2,4]triazolo[4,3-a]pyridin-6-yl)-1-methyl-5,6-dihydropyrrolo[3,4-c]pyrazol-4(1H)-one] are 6.37 nM, 14.95 nM and 6000 nM.
For the compound `COc1cc(N2C(=O)c3c(C4CC4)nn(C)c3C2c2ccc(Cl)cc2)cc2c1nnn2C` (centres unmarked) [Example 6], in assay [1], the GI50 was 63 nM and the “THP-1 TGI” value came to 118.1 nM. Moreover, the concentration for half-maximal inhibition (IC50) in assay [2] was 21600 nM.
In the same order, the values of `Cc1cc(N2C(=O)c3c(C4CC4)nn(C)c3[C@H]2c2ccc(Cl)cc2)cn2c(C(F)F)nnc12` [Example 7, (R)-6-(4-chlorophenyl)-3-cyclopropyl-5-(3-(difluoromethyl)-8-methyl-[1,2,4]triazolo-[4,3-a]pyridin-6-yl)-1-methyl-5,6-dihydropyrrolo[3,4-c]pyrazol-4(1H)-one] are 5.65 nM, 14.8 nM and over 37000 nM.
Regarding `COCCn1nc(C2CC2)c2c1C(c1ccc(Cl)cc1)N(c1cc(C)c3nnc(CF)n3c1)C2=O` (centres unmarked) [Example 18, 6-(4-chlorophenyl)-3-cyclopropyl-5-(3-(fluoromethyl)-8-methyl-[1,2,4]triazolo[4,3-a]-pyridin-6-yl)-1-(2-methoxyethyl)-5,6-dihydropyrrolo[3,4-c]pyrazol-4(1H)-one], in assay [1], growth was halved (GI50) at 19.2 nM and the “THP-1 TGI” value was determined as 46.45 nM. Besides, the IC50 in assay [2] was over 37000 nM.
Take `Cc1nnc2c(NC(=O)OC(C)(C)C)cc(N3C(=O)c4c(C5CC5)nn(C)c4C3c3ccc(Cl)cc3)cn12` (centres unmarked) [Example 27, tert-butyl (6-(6-(4-chlorophenyl)-3-cyclopropyl-1-methyl-4-oxopyrrolo[3,4-c]pyrazol-5(1H,4H,6H)-yl)-3-methyl-[1,2,4]triazolo[4,3-a]pyridin-8-yl)carbamate]: in assay [1], the GI50 was 22.8 nM and the “THP-1 TGI” value was 44.65 nM. Moreover, the IC50 in assay [2] amounted to 8100 nM.
`CCOC(=O)Nc1cc(N2C(=O)c3c(C4CC4)nn(C)c3C2c2ccc(Cl)cc2)cn2c(C)nnc12` (centres unmarked) [Example 29, ethyl (6-(6-(4-chlorophenyl)-3-cyclopropyl-1-methyl-4-oxopyrrolo[3,4-c]pyrazol-5-(1H,4H,6H)-yl)-3-methyl-[1,2,4]triazolo[4,3-a]pyridin-8-yl)carbamate]: in assay [1], it took 2.59 nM to inhibit growth by half (GI50) and the “THP-1 TGI” value stood at 7.62 nM.
